Assay results published in patent publication US12629363B2, “Prophylaxis and treatment of angioedema” (PHARVARIS GMBH, priority 2020, dated 2026).
Like-named read-outs stand apart in the source and are kept apart here.

Experiments:
dog B2 receptor = experiment: Antagonist potency in cells expressing dog B2 receptor; assay type: cell-based; conditions: compared with human B2 receptor
Excerpt: (§1) The bradykinin B2 receptor is well known for its species selective pharmacology (Paquet et al., Br. J. Pharmacol. (126), 1083-1090, 1999 (DOI: 10.1038/sj.bjp.0702403); Burgess et al., Br. J. Pharmacol. (129), 77-86, 2000 (DOI: 10.1038/sj.bjp.0703012)). […] Pharmacol. 11:916; DOI: 10.3389/fphar.2020.00916.

BK B2 receptor = target: T1, BK B2 receptor (Homo sapiens, UniProt P30411); experiment: Bradykinin challenge study, PK/PD (Example 3); assay type: in vivo; conditions: for Time plasma level above EC85 at a 75% confidence level / Time plasma level above EC85 at a 75% confidence level, DBP / Time plasma level above EC85 at a 75% confidence level, MAP: modeling and simulation
T1 sequence (P30411 1-391): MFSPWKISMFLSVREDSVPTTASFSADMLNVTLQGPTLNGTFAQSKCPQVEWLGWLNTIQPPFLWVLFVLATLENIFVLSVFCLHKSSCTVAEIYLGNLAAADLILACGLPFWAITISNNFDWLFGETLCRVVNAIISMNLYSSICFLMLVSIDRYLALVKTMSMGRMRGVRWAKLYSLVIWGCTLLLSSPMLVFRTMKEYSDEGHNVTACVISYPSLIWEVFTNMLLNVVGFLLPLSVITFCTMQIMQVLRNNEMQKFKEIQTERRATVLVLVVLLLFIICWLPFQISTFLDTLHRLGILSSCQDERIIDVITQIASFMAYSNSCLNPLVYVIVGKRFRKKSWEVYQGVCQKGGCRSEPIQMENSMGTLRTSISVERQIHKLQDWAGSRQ
Description: The compound (12 and 22 mg) was administered orally (p.o.) to 16 healthy volunteers. BK was injected intravenously prior to oral administration of the compound, i.e. BK predosing challenge, and at 1, 4, 8, 12 and 24 hours after oral administration (dosing) of the 12 and 22 mg single dose, respectively. BK injections were administered to induce cardiovascular responses in the volunteers. The cardiovascular responses were monitored, and blood samples were drawn over 24 hours for PK assessment. The PD outcome variables were measured from 5 min before until 5 min after each BK bolus. A % inhibition-of-the-baseline average-to-peak effect was calculated and used as the PD outcome.
Immediately after BK injection a short-lived change in blood pressure, heart rate and cardiac output can be recorded.
PK was analyzed using a two-compartment body model with first-order oral absorption and a lag time; results are shown in Table 4. For the PK/PD model a simple Emax-model with a direct link was utilized. The PK/PD model was used to simulate PK profiles (N=1000) and calculate probability of durations of effect as well as to visualize effect-time profiles; see FIGS. 4 and 5.

[1] = Single ascending dose study in healthy volunteers, safety and tolerability (Example 2); assay type: in vivo, human
Description: Safety was assessed by physical examination, vital signs, adverse events, safety laboratory and electrocardiogram (ECG) until 72 h post-dosing.

[2] = target: T2, cynomolgus monkey B2 receptor (Macaca fascicularis, UniProt A0A7N9CWN6); experiment: Antagonist potency in cells expressing cynomolgus monkey B2 receptor; assay type: cell-based; conditions: read-out: Kb value to antagonize BK activation
T2 sequence (A0A7N9CWN6 1-391): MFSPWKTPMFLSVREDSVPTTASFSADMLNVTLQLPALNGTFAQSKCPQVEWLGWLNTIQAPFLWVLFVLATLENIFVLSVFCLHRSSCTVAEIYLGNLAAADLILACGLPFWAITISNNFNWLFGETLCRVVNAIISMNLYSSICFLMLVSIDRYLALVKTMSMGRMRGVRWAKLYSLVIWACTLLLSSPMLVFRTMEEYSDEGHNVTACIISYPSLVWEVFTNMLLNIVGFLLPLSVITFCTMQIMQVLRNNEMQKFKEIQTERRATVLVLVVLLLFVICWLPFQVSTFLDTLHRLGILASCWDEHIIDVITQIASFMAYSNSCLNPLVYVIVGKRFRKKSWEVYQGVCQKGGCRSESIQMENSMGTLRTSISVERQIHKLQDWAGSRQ
Excerpt: as §1

CYP3A4 = CYP3A4 (Homo sapiens, UniProt P08684); experiment: In vitro CYP3A4 substrate data; assay type: in vitro ADME
[3] = Ascending dose study 22-50 mg in healthy volunteers, PK (Example 4); assay type: in vivo, human
Plasma protein binding = assay type: in vitro ADME; conditions: human
[4] = Drug-drug interaction trial with itraconazole, safety and tolerability (Example 5); assay type: in vivo, human; conditions: single 12 mg oral doses on Day 1 and Day 7 (with itraconazole)
Excerpt: Thirteen healthy subjects were enrolled and completed the study.

human B2 receptor = target: T3, human B2 receptor (Homo sapiens, UniProt P30411); experiment: Antagonist potency in cells expressing human B2 receptor; assay type: cell-based
T3 sequence (P30411 1-391): T1 sequence (P30411 1-391)
Excerpt: as §1

[5] = plasma concentration, PD in BK challenge
[6] = 22 mg, after HCHF breakfast, N = 6
[7] = 22 to 50 mg (factor 2.27 increase), after a standardized breakfast

Chain of CYP3A4 (P08684 whole entry): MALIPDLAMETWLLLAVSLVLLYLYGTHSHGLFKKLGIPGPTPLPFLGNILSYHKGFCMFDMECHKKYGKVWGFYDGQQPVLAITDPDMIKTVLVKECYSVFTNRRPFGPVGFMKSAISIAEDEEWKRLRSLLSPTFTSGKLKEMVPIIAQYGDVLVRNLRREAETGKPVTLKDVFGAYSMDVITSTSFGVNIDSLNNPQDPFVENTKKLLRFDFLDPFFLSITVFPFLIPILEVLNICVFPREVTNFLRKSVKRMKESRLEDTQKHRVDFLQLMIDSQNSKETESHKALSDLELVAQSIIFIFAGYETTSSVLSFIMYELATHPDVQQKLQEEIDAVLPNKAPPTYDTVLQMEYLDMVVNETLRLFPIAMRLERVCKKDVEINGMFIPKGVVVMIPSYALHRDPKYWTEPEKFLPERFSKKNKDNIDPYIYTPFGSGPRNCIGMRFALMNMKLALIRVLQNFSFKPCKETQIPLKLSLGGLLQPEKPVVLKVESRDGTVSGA

Structure (SMILES): [2H][C@@](C)(NC(=O)COC(F)F)c1cc(F)cc(Cl)c1COc1cccc2c(-c3ncnn3C)cc(C)nc12 [compound of formula (I)]
- fold less potent towards the dog B2 receptor (dog B2 receptor): 18,000 fold
- time stayed above EC85 (BK B2 receptor; 12 mg oral dose): 7 h
- Time plasma level above EC85 at a 75% confidence level (BK B2 receptor; 12 mg p.o.): 6.5 h
- Time plasma level above EC85 at a 75% confidence level, DBP (BK B2 receptor; 12 mg p.o.): 7.5 h
- Time plasma level above EC85 at a 75% confidence level, MAP (BK B2 receptor; 12 mg p.o.): 7 h
- duration of effect relative to the 12 mg dose (BK B2 receptor; 22 mg oral dose): approximately twice as long
- Time plasma level above EC85 at a 75% confidence level (BK B2 receptor; 22 mg p.o.): 9.5 h
- Time plasma level above EC85 at a 75% confidence level, DBP (BK B2 receptor; 22 mg p.o.): 10 h
- Time plasma level above EC85 at a 75% confidence level, MAP (BK B2 receptor; 22 mg p.o.): 10 h
- potency relative to icatibant based on plasma concentrations (BK B2 receptor; BK challenge EC50/EC85): approximately four-fold more potent than icatibant
- EC50 (BK B2 receptor; corrected for plasma protein binding 96.2%, read-out: free plasma concentration associated with EC50 of 2.4 ng/ml): 0.17 nM
- intrinsic PD potency at the K B2 receptor, fold higher than icatibant (BK B2 receptor; in vivo): about 25 fold
- Estimated EC85, Cardiac output (BK B2 receptor; [5]): 0.00952 µg/mL
- Estimated EC85, Composite average (BK B2 receptor; [5]): 0.0138 µg/mL
- Estimated EC85, Diastolic blood pressure (BK B2 receptor; [5]): 0.01326 µg/mL
- Estimated EC85, Heart rate (BK B2 receptor; [5]): 0.0187 µg/mL
- EC50 (BK B2 receptor; plasma concentration, PD in BK challenge, read-out: Estimated EC50, Cardiac output (converted)): 3.14 nM
- EC50 (BK B2 receptor; plasma concentration, PD in BK challenge, read-out: Estimated EC50, Composite average (converted)): 4.49 nM
- EC50 (BK B2 receptor; plasma concentration, PD in BK challenge, read-out: Estimated EC50, Diastolic blood pressure (converted)): 4.37 nM
- EC50 (BK B2 receptor; plasma concentration, PD in BK challenge, read-out: Estimated EC50, Heart rate (converted)): 6.17 nM
- Any adverse effects ([1]; 1 mg, fasted, N = 6): 2 (33.3%) n (%)
- Any related adverse effects ([1]; 1 mg, fasted, N = 6): 0 n (%)
- Any serious adverse effects ([1]; 1 mg, fasted, N = 6): 0 n (%)
- Any adverse effects ([1]; 2 mg, fasted, N = 6): 1 (16.7%) n (%)
- Any related adverse effects ([1]; 2 mg, fasted, N = 6): 0 n (%)
- Any serious adverse effects ([1]; 2 mg, fasted, N = 6): 0 n (%)
- Any adverse effects ([1]; 4.5 mg, fasted, N = 6): 1 (16.7%) n (%)
- Any related adverse effects ([1]; 4.5 mg, fasted, N = 6): 0 n (%)
- Any serious adverse effects ([1]; 4.5 mg, fasted, N = 6): 0 n (%)
- Any adverse effects ([1]; 12 mg, fasted, N = 14): 5 (35.7%) n (%)
- Any related adverse effects ([1]; 12 mg, fasted, N = 14): 2 (14.3%) n (%)
- Any serious adverse effects ([1]; 12 mg, fasted, N = 14): 0 n (%)
- Any adverse effects [1, 6]: 1 (16.7%) n (%)
- Any related adverse effects [1, 6]: 0 n (%)
- Any serious adverse effects [1, 6]: 0 n (%)
- Any adverse effects ([1]; 22 mg, fasted, N = 14): 2 (14.3%) n (%)
- Any related adverse effects ([1]; 22 mg, fasted, N = 14): 1 (7.1%) n (%)
- Any serious adverse effects ([1]; 22 mg, fasted, N = 14): 0 n (%)
- subjects with treatment-related adverse events ([1]; 12 or 22 mg, gastrointestinal, mild severity): three
- blood pressure fluctuations and orthostatic hypotension ([1]; single oral doses up to 22 mg): no clinically relevant fluctuations of blood pressure and no orthostatic hypotension
- changes in hematology, clinical chemistry, vital signs, or ECG ([1]; single oral doses up to 22 mg): no apparent trends or dose-related changes
- safety and tolerability ([1]; single oral doses up to 22 mg): safe and well tolerated
- Kb [2]: 1.42 nM
- CYP3A4 substrate (CYP3A4): substrate of CYP3A4
- fold increase for mean AUC0-24h [3, 7]: 2.39 fold
- fold increase for mean Cmax [3, 7]: 2.37 fold
- dose proportionality of PK ([3]; 22 to 50 mg after a standardized breakfast): dose-proportional PK
- change in AUCinf after a standardized breakfast ([3]; compared to fasting conditions): did not show a significant change
- decrease in Cmax after a standardized breakfast ([3]; compared to fasting conditions): 40-50%
- C12h and C24h plasma concentration, fed vs fasting ([3]; human, in vivo): higher under fed conditions
- fraction unbound (Plasma protein binding): 0.038
- tolerability [4]: well tolerated with no related adverse events reported
- times more potent at human B2 receptor than icatibant (human B2 receptor): about 20 times
- intrinsic agonist activity (human B2 receptor; B2 receptor): devoid of intrinsic agonist activity
- Kb (human B2 receptor; human B2 receptor, read-out: Kb value to antagonize BK activation): 0.15 nM
- antagonist potency at recombinant human B2 receptors (human B2 receptor; recombinant): 0.15 nM
